SMILES strings stand for the structures. ≈ marks a conversion by molar mass, not a printed value.

This note sets out measurements from patent US20060270628A1, “Antiinfective 1,2,3-triazole derivatives, process for their preparation and pharmaceutical compositions containing them” (priority 2003, published 2006).

One data set has as its system Mycobacterium MTCC006. In words: MIC by broth microdilution, Mycobacterium MTCC006. The format is cell-based. Particulars: read-out: Antimicrobial Screening (MIC) Mycobacterium MTCC006. The method, then: (§1) Minimum Inhibiton Concentrations (MICs) were determined by broth microdilution technique as per the guidelines prescribed in the fifth edition of Approved Standards, NCCLS document M7-A5 Vol 20-No 2, 2000 Villinova, Pa.
(§2) Initial stock solution of the test compound was prepared in DMSO. Subsequent two fold dilutions were carried out in sterile Mueller Hinton Broth (Difco) (MHB).
(§3) Frozen cultures stocks were inoculated into 50 ml sterile MHB in 250 ml Erlyn Meyer flasks. • Composition of MHB is as follows: • Beef Extract Powder—2.0 grams/litre • Acid Digest of Casein—17.5 grams/litre • Soluble Starch—1.5 grams/litre • Final pH 7.3±0.1
(§4) Flasks were incubated for 4 to 5 hours at 35° C. on a rotary shaker at 150 rpm. Inoculum was prepared by diluting the culture in sterile MHB to obtain a turbidity of 0.5 McFarland standard. This corresponds to 1-2×10^8 CFU/ml. The stock was further diluted in sterile broth to obtain 1-2×10^6 CFU/ml. 50 μl of the above diluted inoculum was added from 1-10 wells. The plates were incubated overnight at 37° C.

Data set [1] relates to Enterococcus faecalis ATCC 29212 (DRCC 034, S). Briefly: MIC by broth microdilution, Enterococcus sp 034 S. Type of data set: cell-based. Particulars: ATCC29212, Enterococcus DRCC 034 (E. faecalis ATCC 29212), read-out: Antimicrobial Screening (MIC) Enterococcus sp 034 S. The method, then: as §1, §2, §3, §4
For the next data set, the system named is Salmonella TA97. In words: MIC by broth microdilution, Salmonella TA97. Type of data set: cell-based. The conditions noted are these: read-out: Antimicrobial Screening (MIC) Salmonella TA97. As for the experimental part:
as §1, §2, §3, §4

Data set [2] deals with Enterococcus faecium NCTC 12202 (DRCC 154, R). In words: MIC by broth microdilution, Enterococcus sp 154 R. Type of data set: cell-based. The conditions noted are these: NCTC12202, Enterococcus DRCC 154 (E. faecium NCTC 12202), read-out: Antimicrobial Screening (MIC) Enterococcus sp 154 R. The method, then: as §1, §2, §3, §4
The subject of data set [3] is Staphylococcus aureus ATCC 29213 (DRCC 035, S). In words: MIC by broth microdilution, Staphylococcus aureus 035 S. The format is cell-based. The conditions noted are these: ATCC29213, Staphylococcus aureus DRCC 035 (ATCC 29213), read-out: Antimicrobial Screening (MIC) Staphylococcus aureus 035 S. The method, then: as §1, §2, §3, §4
Data set [4] has as its system Staphylococcus aureus ATCC 33591 (DRCC 019, MRSA). Briefly: MIC by broth microdilution, Staphylococcus aureus 019 MRSA. Type of data set: cell-based. The conditions noted are these: Staphylococcus aureus DRCC 019 (ATCC 33591), read-out: Antimicrobial Screening (MIC) Staphylococcus aureus 019 MRSA. The method, then:
as §1, §2, §3, §4

For data set [5], the system named is Staphylococcus aureus ATCC 49951 (DRCC 213, Smith S). Briefly: MIC by broth microdilution, Staphylococcus aureus 213 Smith S. Type of data set: cell-based. The conditions noted are these: ATCC49951, Staphylococcus aureus DRCC 213 (ATCC 49951), read-out: Antimicrobial Screening (MIC) Staphylococcus aureus 213 Smith S. As for the experimental part: as §1, §2, §3, §4

For data set [6], the system named is Enterococcus faecalis NCTC 12201 (DRCC 153, R). In words: MIC by broth microdilution, Enterococcus sp 153 R. The format is cell-based. The conditions noted are these: NCTC12201, Enterococcus DRCC 153 (E. faecalis NCTC 12201), read-out: Antimicrobial Screening (MIC) Enterococcus sp 153 R. As for the experimental part:
as §1, §2, §3, §4

On to `COC(=S)NCc1cn(-c2ccc(-n3cccc3)cc2)nn1` [Example 1, [1-(4-Pyrrol-1-yl-phenyl)-1H-[1,2,3]triazol-4-ylmethyl]-thiocarbamic acid O-methyl ester], for which the melting point came out at 150 °C.

The compound `COC(=S)NCc1cn(-c2ccc(-n3ccc(C=O)c3)cc2)nn1` [Example 2, {1-[4-(3-Formyl-pyrrol-1-yl)-phenyl]-1H-[1,2,3]triazol-4-ylmethyl}-thiocarbamic acid O methyl ester] returned a melting point of 160 to 162 °C.

For the compound `COC(=S)NCc1cn(-c2cc(F)c(-n3ccc(C#N)c3)c(F)c2)nn1` [Example 8, {1-[4-(3-Cyano-pyrrol-1-yl)-3,5-difluoro-phenyl]-1H-[1,2,3]triazol-4-ylmethyl}-thiocarbamic acid O-methyl ester], the MIC in the data set with Mycobacterium MTCC006 was found to be 32 µg/mL (≈ 85.5 µM); in data set [1] it was 0.5 µg/mL (≈ 1.34 µM); in the data set on Salmonella TA97 it was 32 µg/mL (≈ 85.5 µM); in data set [2] it was 0.5 µg/mL (≈ 1.34 µM); in data set [3] it was 1 µg/mL (≈ 2.67 µM); in data set [4] it was 0.5 µg/mL (≈ 1.34 µM). The minimal inhibitory concentration (MIC) in data set [5] and in data set [6] was 0.5 µg/mL (≈ 1.34 µM) in each case.

Consider `COC(=S)NCc1cn(-c2cc(F)c(-n3ccnc3)c(F)c2)nn1` [Example 9, [1-(3,5-Difluoro-4-imidazol-1-yl-phenyl)-1H-[1,2,3]triazol-4-ylmethyl]-thiocarbamic acid O-methyl ester], for which the melting point was 180 °C. Besides, the minimal inhibitory concentration (MIC) with Mycobacterium MTCC006 was determined as 4 µg/mL (≈ 11.4 µM). In addition, the minimal inhibitory concentration (MIC) in data set [1] stood at 2 µg/mL (≈ 5.71 µM). Further, the MIC with Salmonella TA97 is 32 µg/mL (≈ 91.3 µM). Besides, the minimal inhibitory concentration (MIC) in data set [2] came to 2 µg/mL (≈ 5.71 µM). Further, the MIC in [3] was determined as 1 µg/mL (≈ 2.85 µM). In data set [4], the MIC is 1 µg/mL (≈ 2.85 µM). In addition, in data set [5], the MIC is 1 µg/mL (≈ 2.85 µM). Besides, the minimal inhibitory concentration (MIC) in data set [6] was determined as 1 µg/mL (≈ 2.85 µM).

`COC(=S)NCc1cn(-c2ccc(-n3ccnc3)c(F)c2)nn1` [Example 10, [1-(3-Fluoro-4-imidazol-1-yl-phenyl)-1H-[1,2,3]triazol-4-ylmethyl]-thiocarbamic acid O-methyl ester] displayed a melting point of 165 to 167 °C.

Compound `COC(=S)NCc1cn(-c2ccc(-n3cncn3)c(F)c2)nn1` [Example 20, [1-(3-Fluoro-4-[1,2,4]triazol-1-yl-phenyl)-1H-[1,2,3]triazol-4-yl-methyl]-thiocarbamic acid O-methyl ester] had a melting point of 179 °C. Also, the MIC with Mycobacterium MTCC006 was determined as 16 µg/mL (≈ 48 µM). Also, the MIC in [1] is 32 µg/mL (≈ 96 µM). Moreover, the MIC with Salmonella TA97 is 32 µg/mL (≈ 96 µM). Moreover, the minimum inhibitory concentration (MIC) in [2] worked out at 32 µg/mL (≈ 96 µM). Moreover, the MIC in data set [3] was 16 µg/mL (≈ 48 µM). Besides, the MIC in data set [4] was 8 µg/mL (≈ 24 µM). Besides, the MIC in [5] stood at 16 µg/mL (≈ 48 µM). In addition, the MIC in data set [6] came out at 32 µg/mL (≈ 96 µM).

`CC(=O)NCc1cn(-c2ccc(-n3cccc3)c(F)c2)nn1` [Example 22, N-[1-(3-Fluoro-4-pyrrol-1-yl-phenyl)-1H-[1,2,3]triazol-4-ylmethyl]-acetamide] returned a melting point of 210 to 215 °C.

For `CC(=S)NCc1cn(-c2ccc(-n3ccnc3)c(F)c2)nn1` [Example 24, N-[1-(3-Fluoro-4-imidazol-1-yl-phenyl)-1H-[1,2,3]triazol-4-ylmethyl]-thioacetamide], the melting point came out at 185 °C.

Regarding `CC(=O)NCc1cn(-c2ccc(-n3cncn3)c(F)c2)nn1` [Example 25, N-[1-(3-Fluoro-4-[1,2,4]triazol-1-yl-phenyl)-1H-[1,2,3]triazol-4-ylmethyl]-acetamide], the melting point stood at 223 °C.

Regarding `COC(=S)NCc1cn(-c2ccc(-n3cnc(CO)c3)c(F)c2)nn1` [Example 27, {1-[3-Fluoro-4-(4-hydroxymethyl-imidazol-1-yl)-phenyl]-1H-[1,2,3]triazol-4-ylmethyl}-thiocarbamic acid O-methyl ester], the melting point was determined as 179 °C. The MIC in the data set with Mycobacterium MTCC006 came out at 16 µg/mL (≈ 44.2 µM). Also, the MIC in data set [1] is 2 µg/mL (≈ 5.52 µM). Moreover, the MIC with Salmonella TA97 was 32 µg/mL (≈ 88.3 µM). For the same compound, the MIC in data set [2] was determined as 2 µg/mL (≈ 5.52 µM). Besides, in [3], the minimum inhibitory concentration (MIC) amounted to 1 µg/mL (≈ 2.76 µM). Besides, in data set [4], the minimal inhibitory concentration (MIC) amounted to 1 µg/mL (≈ 2.76 µM). Besides, the minimum inhibitory concentration (MIC) in [5] is 1 µg/mL (≈ 2.76 µM). The MIC in data set [6] stood at 1 µg/mL (≈ 2.76 µM).
